Source: US5446020A (Scios Nova Inc., priority 1993, dated 1995)

Columns and labels:
[1] = in vivo; cited from earlier work
rats = assay: euglycemic, hyperinsulinemic clamp with 3H-glucose tracer; type: in vivo; details: rat clamp
Procedure: Analogs of the invention can be tested in a euglycemic, hyperinsulinemic rat clamp using ^3 H-glucose as a tracer. In accordance with this technique, glucose is infused to maintain euglycemia. […] Using ^3 H-glucose, glucose utilization by the periphery (Rd) and glucose production by the liver (HGO) can be calculated under steady state conditions using the equation of Steel et al., Am. J. Physiol. (1956) 187:15-24, incorporated herein by reference.
Analogs were tested using the euglycemic, hyperinsulinemic clamp method. […] The exogenous glucose was infused at a rate sufficient to maintain euglycemia for the duration of the experiment. Additionally, [D-3-^3 H] glucose (tracer) is infused to assess glucose metabolism (i.e, glucose turnover). The steady state equation of Steele et al. (Am. J. Physiol. (1956) 187:15-241) was used to calculate hepatic glucose output and the rate of glucose disposal. Under steady state conditions, glucose (mg/ml) and ^3 H-glucose (dpm/ml) levels are constant. Under these conditions the rate of glucose appearance (Ra)=rate of glucose disappearance (Rd). At steady state Ra =Rd. Ra is further defined as the rate of glucose entering the glucose pool (approximately the blood volume and other extra-cellular volume). Ra is equal to the rate at which the liver is making glucose plus the rate of any exogenous glucose infusion. Rd is equal to the rate of glucose leaving the pool.
Three main parameters are used to assess the effects of the analogs. The rate of exogenous infusion (i.e., glucose infusion rate, GIR or M) estimates the potency of analog. […] Finally, hepatic glucose output (HGO), reflects the ability of the analogs to suppress the liver's production of glucose.
Four to five days prior to experimentation, 65 mg/kg of sodium pentobarbital was administered intraperitoneally to anesthetize rats. Catheters were inserted in the right jugular vein and left carotid artery. The catheters were routed subcutaneously to the dorsal region of the neck and exteriorized. […] Blood samples were taken from the jugular vein. […] At 10 minute intervals after starting hormone infusion, 50 μl blood samples were taken to determine the plasma glucose level. During infusion of hormone, a 30% glucose solution was infused at an empirically determined rate to maintain the basal glucose level.
Aliquots of whole blood were obtained at -20, -10 and 0 minutes before the clamp was started, and later at 70, 80, and 90 minutes into the clamp and the plasma glucose level determined. Glucose specific activity at these times was also determined as follows: [formula]
The blood was deproteinized with 10% TCA, centrifuged, and an aliquot of supernatant dried in a vacuum oven to evaporate off ^3 H2 O. The ^3 H-glucose levels in the sample were determined using a liquid scintillation counter. Basal Ra (glucose appearance rate) and clamp Ra were calculated by using steady state glucose specific activity (basal: -20, -10 and 0 minutes; clamp: 70, 80, 90 minutes) and the following equation: [formula] Under basal conditions, at steady state, Ra =Rd and Ra hepatic glucose output. Under clamp conditions, at a steady state, Ra =Rd, however under these conditions, Ra =hepatic glucose output plus exogenous glucose infusion rate. Hepatic glucose output under clamp conditions was determined by subtracting the glucose infusion rate from the calculated Rd.

[2] = cited from earlier work
[3] = of the potency of native insulin; cited from earlier work

Substance | circulating half-life [1] | GIR (glucose infusion rate) (rats; infusion 41.5 ng/kg/min) | HGO (hepatic glucose output) (rats; infusion 41.5 ng/kg/min) | Rd (rate of glucose disappearance) (rats; infusion 41.5 ng/kg/min) | GIR (glucose infusion rate) (rats; infusion 83 ng/kg/min) | GIR (glucose infusion rate) (rats; infusion 100 ng/kg/min) | HGO (hepatic glucose output) (rats; infusion 100 ng/kg/min) | Rd (rate of glucose disappearance) (rats; infusion 100 ng/kg/min) | GIR (glucose infusion rate) (rats; infusion 166 ng/kg/min) | HGO (hepatic glucose output) (rats; infusion 166 ng/kg/min) | Rd (rate of glucose disappearance) (rats; infusion 166 ng/kg/min) | GIR (glucose infusion rate) (rats; infusion 415 ng/kg/min) | HGO (hepatic glucose output) (rats; infusion 415 ng/kg/min) | Rd (rate of glucose disappearance) (rats; infusion 415 ng/kg/min) | potency relative to insulin in vivo ([2]; of the potency of insulin) | in vivo hepatoselectivity, more than that of insulin ([2]; relative to insulin per se) | potency relative to native insulin when assayed in vitro [3]
Insulin: insulin, the comparator hormone infused in the rat clamp | 4 min | 1.7 ± 0.6 mg/kg/min | 11.3 ± 0.3 mg/kg/min | 13.0 ± 0.3 mg/kg/min | 6.9 ± 0.8 mg/kg/min | 8.8 ± 1.2 mg/kg/min | 9.1 ± 0.7 mg/kg/min | 17.8 ± 1.0 mg/kg/min | 19.7 ± 0.5 mg/kg/min | 6.4 ± 1.1 mg/kg/min | 26.1 ± 0.8 mg/kg/min | 30.8 ± 1.7 mg/kg/min | 3.5 ± 0.7 mg/kg/min | 34.3 ± 1.6 mg/kg/min | – | – | –
Proinsulin: single chain peptide precursor of insulin synthesized in the islets of Langerhans | 30 min | – | – | – | – | – | – | – | – | – | – | – | – | – | about 15% | 50% | 1-2%
